US10435361B2, “Kinase inhibitors” (Topivert Pharma Limited, priority 2013, dated 2019)

How the values were obtained:
Format in all cases: cell-based
PBMCs [1] = experiment: Cell mitosis assay in PBMCs; conditions: Homo sapiens, PBMC, 5 μg/mL
Description: Peripheral blood mononucleocytes (PBMCs) from healthy subjects are separated from whole blood (Quintiles, London, UK) using a density gradient (Histopaque®-1077, Sigma-Aldrich, Poole, UK). The PBMCs (3 million cells per sample) are subsequently treated with 2% PHA (phytohaemagglutinin, Sigma-Aldrich, Poole, UK) for 48 hr, followed by a 20 hr exposure to varying concentrations of test compounds. At 2 hr before collection, PBMCs are treated with demecolcine (0.1 μg/mL; Invitrogen, Paisley, UK) to arrest cells in metaphase. To observe mitotic cells, PBMCs are permeabilised and fixed by adding Intraprep (50 μL; Beckman Coulter, France), and stained with anti-phospho-histone 3 (0.26 ng/L; #9701; Cell Signalling, Danvers, Mass.) and propidium iodide (1 mg/mL; Sigma-Aldrich, Poole, UK) as previously described (Muehlbauer P. A. and Schuler M. J., Mutation Research, 2003, 537:117-130). Fluorescence is observed using an ATTUNE flow cytometer (Invitrogen, Paisley, UK), gating for lymphocytes.

PBMCs [2] = experiment: LPS-induced TNFα/IL-8 release in PBMC cells; conditions: Homo sapiens, assay (b), read-out: IC50 Values for Inhibition of Cytokine Release PBMCs IL-8
Summary of the method: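 Healthy-donor PBMCs isolated by density gradient were pretreated with compound for 2 h, then stimulated with 1 ng/mL LPS (E. coli 0111:B4) for 24 h at 37° C., 5% CO2. IL-8 and TNFα in supernatants measured by sandwich ELISA.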

PBMCs [3] = experiment: IL-2 and IFN gamma release in CD3/CD28 stimulated PBMC cells; conditions: Homo sapiens, assay (c)
Description: PBMCs from healthy subjects are separated from whole blood using a density gradient (Lymphoprep, Axis-Shield Healthcare). Cells are added to a 96 well plate pre-coated with a mixture of CD3/CD28 monoclonal antibodies (0.3 μg/mL eBioscience and 3 μg/mL BD Pharmingen respectively). Compound at the desired concentration is then added to the wells and the plate left for 3 days under normal tissue culture conditions. […] The IC50 is determined from the dose response curve.

[4] = read-out: IC50 Values for Inhibition of Cytokine Release PBMCs IFNγ
[5] = read-out: IC50 Values for Inhibition of Cytokine Release PBMCs IL-2

Structure (SMILES)	inhibition at 5 µg/mL (PBMCs [1])	IC50 (PBMCs [2])	IC50 (PBMCs [3]; [4])	IC50 (PBMCs [3]; [5])
COc1cc(CO)cc(Nc2cc(Oc3ccc(NC(=O)Nc4cc(C(C)(C)C)cc(C(N)=O)c4OC)c4ccccc34)ccn2)c1 [84(g), 5-tert-Butyl-3-[[4-[[2-[3-(hydroxymethyl)-5-methoxyanilino]-4-pyridyl]oxy]-1-naphthyl]carbamoylamino]-2-methoxybenzamide]	84.6%	0.7 nM	1.3 nM	43.5 nM
CNC(=O)c1cc(C(C)(C)C)cc(NC(=O)Nc2ccc(Oc3ccnc(Nc4cc(CO)cc(OC)c4)c3)c3ccccc23)c1OC [84(h), 5-tert-Butyl-3-[[4-[[2-[3-(hydroxymethyl)-5-methoxyanilino]-4-pyridyl]oxy]-1-naphthyl]carbamoylamino]-2-methoxy-N-methyl-benzamide]	87%	0.7 nM	1.7 nM	51.3 nM
COc1cc(Nc2cc(Oc3ccc(NC(=O)Nc4cc(C(C)(C)C)cc(NS(C)(=O)=O)c4OC)c4ccccc34)ccn2)cc(C(=O)NCC(=O)N2CCOCC2)c1 [85(a), 3-[[4-[[4-[[5-tert-Butyl-3-(methanesulfonamido)-2-methoxyphenyl]-carbamoylamino]-1-naphthyl]oxy]-2-pyridyl]amino]-5-methoxy-N-(2-morpholino-2-oxo-ethyl)benzamide]	46.3%	0.8 nM	11.8 nM	53.8 nM
C#Cc1cc(Nc2cc(Oc3ccc(NC(=O)Nc4cc(C(C)(C)C)cc(CO)c4OC)c4ccccc34)ccn2)cc(C(=O)NCCOCCOCCOC)c1 [85(b), 3-[[4-[[4-[[5-tert-Butyl-3-(hydroxymethyl)-2-methoxyphenyl]-carbamoylamino]-1-naphthyl]oxy]-2-pyridyl]amino]-5-ethynyl-N-[2-[2-(2-methoxyethoxy)ethoxy]ethyl]benzamide]	25.3%	1.5 nM	16.2 nM	123 nM
C#Cc1cc(Nc2cc(Oc3ccc(NC(=O)Nc4cc(C(C)(C)C)cc(NS(C)(=O)=O)c4OC)c4ccccc34)ccn2)cc(C(=O)NCCCN2CCOCC2)c1 [85(d), 3-[[4-[[4-[[5-tert-Butyl-3-(methanesulfonamido)-2-methoxyphenyl]-carbamoylamino]-1-naphthyl]oxy]-2-pyridyl]amino]-5-ethynyl-N-(3-morpholinopropyl)-benzamide]	33.2%	2.1 nM	15.4 nM	94.3 nM
COc1cc(Nc2cc(Oc3ccc(NC(=O)Nc4cc(C(C)(C)C)cc(NS(C)(=O)=O)c4OC)c4ccccc34)ccn2)cc(C(=O)NCC(C)(C)N2CCOCC2)c1 [85(h), 3-[[4-[[4-[[5-tert-Butyl-3-(methanesulfonamido)-2-methoxyphenyl]-carbamoylamino]-1-naphthyl]oxy]-2-pyridyl]amino]-5-methoxy-N-(2-methyl-2-morpholinopropyl)benzamide]	27.5%	2.2 nM	23 nM	150 nM
COc1cc(Nc2cc(Oc3ccc(NC(=O)Nc4cc(C(C)(C)C)cc(NS(C)(=O)=O)c4OC)c4ccccc34)ccn2)cc(C(=O)NCCN2CCS(=O)(=O)CC2)c1 [85(k), 3-[[4-[[4-[[5-tert-Butyl-3-(methanesulfonamido)-2-methoxyphenyl]-carbamoylamino]-1-naphthyl]oxy]-2-pyridyl]amino]-N-[2-(1,1-dioxo-1,4-thiazinan-4-yl)ethyl]-5-methoxybenzamide]	41%	1.7 nM	9.3 nM	57.1 nM
C#Cc1cc(Nc2nccc(Oc3ccc(NC(=O)Nc4cc(C(C)(C)C)cc(NS(C)(=O)=O)c4OC)c4ccccc34)n2)cc(C(=O)NCCN2CCOCC2)c1 [Example 1, 3-((4-((4-(3-(5-(tert-Butyl)-2-methoxy-3-(methylsulfonamido)phenyl)ureido)naphthalen-1-yl)oxy)pyrimidin-2-yl)amino)-5-ethynyl-N-(2-morpholinoethyl)benzamide]	22.1%	1.4 nM	10.4 nM	112 nM
C#Cc1cc(Nc2nccc(Oc3ccc(NC(=O)Nc4cc(F)cc(N5CCOCC5)c4)c4ccccc34)n2)cc(C(=O)NCCN2CCOCC2)c1 [Example 2, 3-Ethynyl-5-((4-((4-(3-(3-fluoro-5-morpholinophenyl)ureido)naphthalen-1-yl)oxy)-pyrimidin-2-yl)amino)-N-(2-morpholinoethyl)benzamide]	4%	142 nM	35.7 nM	–
COc1cc(Nc2nccc(Oc3ccc(NC(=O)Nc4cc(C(C)(C)C)cc(NS(C)(=O)=O)c4OC)c4ccccc34)n2)cc(C(=O)NCCN2CCOCC2)c1 [Example 6, 3-((4-((4-(3-(5-(tert-Butyl)-2-methoxy-3-(methylsulfonamido)phenyl)ureido)naphthalen-1-yl)oxy)pyrimidin-2-yl)amino)-5-methoxy-N-(2-morpholinoethyl)benzamide]	41.7%	0.8 nM	9.3 nM	89.9 nM
CNC(=O)c1cc(C(C)(C)C)cc(NC(=O)Nc2ccc(Oc3ccnc(Nc4cc(OC)cc(OCCOCCOCCOC)c4)n3)c3ccccc23)c1OC [Example 13, 5-(tert-Butyl)-2-methoxy-3-(3-(4-((2-((3-methoxy-5-(2-(2-(2-methoxyethoxy)ethoxy)-ethoxy)phenyl)amino)pyrimidin-4-yl)oxy)naphthalen-1-yl)ureido)-N-methylbenzamide]	46.1%	1.3 nM	4.6 nM	57.4 nM
COc1cc(Nc2nccc(Oc3ccc(NC(=O)Nc4cc(C(C)(C)C)cc(NS(C)(=O)=O)c4OC)c4ccccc34)n2)cc(OCCOCCOCCN(C)C)c1 [Example 15, N-(5-(tert-Butyl)-3-(3-(4-((2-((3-(2-(2-(2-(dimethylamino)ethoxy)ethoxy)ethoxy)-5-methoxyphenyl)amino)pyrimidin-4-yl)oxy)naphthalen-1-yl)ureido)-2-methoxyphenyl)-methanesulfonamide]	97.5%	0.9 nM	–	–
COc1cc(Nc2nccc(Oc3ccc(NC(=O)Nc4cc(C(C)(C)C)cc(NS(C)(=O)=O)c4OC)c4ccccc34)n2)cc(OCCOCCOCCN2CCOCC2)c1 [Example 18, N-(5-(tert-Butyl)-2-methoxy-3-(3-(4-((2-((3-methoxy-5-(2-(2-(2-morpholinoethoxy)ethoxy)-ethoxy)phenyl)amino)pyrimidin-4-yl)oxy)naphthalen-1-yl)ureido)phenyl)methanesulfonamide]	92.7%	1 nM	–	–
COCCOCCOCCOc1cc(Nc2nccc(Oc3ccc(NC(=O)Nc4cc(C(C)(C)C)cc(C(N)=O)c4OC)c4ccccc34)n2)cc(OC)c1 [Example 20, 5-(tert-Butyl)-2-methoxy-3-(3-(4-((2-((3-methoxy-5-(2-(2-(2-methoxyethoxy)ethoxy)-ethoxy)phenyl)amino)pyrimidin-4-yl)oxy)naphthalen-1-yl)ureido)benzamide]	44.3%	1.1 nM	9 nM	84.3 nM
COCCOCCOCCOc1cc(Nc2nccc(Oc3ccc(NC(=O)Nc4cc(C(C)(C)C)cc(C(=O)NCC(=O)OC)c4OC)c4ccccc34)n2)cc(OC)c1 [Example 37, Methyl 2-(5-(tert-butyl)-2-methoxy-3-(3-(4-((2-((3-methoxy-5-(2-(2-(2-methoxyethoxy)-ethoxy)ethoxy)phenyl)amino)pyrimidin-4-yl)oxy)naphthalen-1-yl)ureido)benzamido)-acetate]	45.9%	2.2 nM	–	–
COCCOCCOCCOc1cc(Nc2cc(Oc3ccc(NC(=O)Nc4cc(C(C)(C)C)cc(C(=O)NCCN(C)C)c4OC)c4ccccc34)ccn2)cc(OC)c1 [Example 76, 5-(tert-Butyl)-N-(2-(dimethylamino)ethyl)-2-methoxy-3-(3-(4-((2-((3-methoxy-5-(2-(2-(2-methoxyethoxy)ethoxy)ethoxy)phenyl)amino)pyridin-4-yl)oxy)naphthalen-1-yl)ureido)-benzamide]	91.3%	1.9 nM	–	–
COCCOCCOCCS(=O)(=O)c1cc(Nc2cc(Oc3ccc(NC(=O)Nc4cc(C(C)(C)C)cc(NS(C)(=O)=O)c4OC)c4ccccc34)ccn2)cc(OC)c1 [Example 85(y), 1-[5-tert-Butyl-3-(methanesulfonamido)-2-methoxyphenyl]-3-[4-[2-[3-methoxy-5-[2-[2-(2-methoxyethoxy)ethoxy]ethylsulfonyl]anilino]pyridin-4-yl]oxy-1-naphthyl]urea]	20.1%	1.7 nM	–	–
